Source: a melting point compilation (Tetko et al.; mined from patent text by program, amines drawn as free bases though some values may be those of a salt)

SMILES | melting point [°C]
COC(=O)C(Cc1cccc(C2(OC)CCOCC2)c1)c1nc(-c2ccccc2)c(-c2ccc(S(N)(=O)=O)cc2)o1 (stereo not given) | 88.7 to 94.9
FC(F)c1nc2ccccc2n1-c1nc(NCc2cccnc2)nc(N2CCOCC2)n1 | 160 to 161
CCN(CCc1ccccc1OCc1ccccc1)c1ccc(C(=O)O)cc1 | 175
CCCCCCCNC(=O)Nc1ccc(O)cc1C(=O)NCCC(c1ccccc1)c1ccccc1 | 161 to 162
Nc1ccn(C2CC(O)C(CO)O2)c(=O)c1F (stereo not given) | 161 to 163
CC1(C)C(=O)N(c2ccc(C#N)c(C(F)(F)F)c2)C(=O)N1Cc1ccccc1Br | 56 to 58
COc1ccc(OC)c(Nc2nc(-c3ccc(F)cc3)cs2)c1 | 160
CNC(=O)c1nc2ccc3c(c2c(-c2ccc4c(c2)OCO4)c1C)OCO3 | 141 to 146
CCOc1ccc(S(C)(=O)=O)cc1C(=O)Nc1c(C(N)=O)nn(CCOC)c1CC | 190 to 192
CC(=Cc1cccc([N+](=O)[O-])c1)C(=O)O | 201 to 202
Oc1ccc(Oc2ccc(C(F)(F)F)cc2Cl)cc1 | 55 to 56
COC(=O)CN1C(=O)c2c(c3cc(C)ccc3n2C)S1(=O)=O | 248
O=P(O)(O)COc1ccc(-c2c3ccccc3cc3sc4ccccc4c23)cc1 | 240 to 242
NC(=O)[C@@H](CCC(F)(F)F)N(Cc1ccc(-c2ncon2)cc1F)S(=O)(=O)c1ccc(Cl)cc1 | 66 to 68
CSCCCC1(C(=S)N[C@@H](Cc2ccc(NC(=O)c3c(Cl)cccc3Cl)cc2)C(=O)O)CCC1 | 186 to 188
CCc1ccccc1NC=C1C(=O)N(c2ccc(N(S(C)(=O)=O)S(C)(=O)=O)cc2)N=C1C | 268
C=CCc1cc(OCC)c2c(c1OC)S(=O)(=O)N(Cc1ccccc1)C2=O | 92 to 94
OC(CCc1ccoc1)c1cnc2sc3c(n12)CCCCC3 (stereo not given) | 153 to 155
CCC12CCC3c4ccc(OC)cc4CCC3C1CC(=CN(C)C)C2=O (stereo not given) | 157 to 159
COC(=O)c1ccc(NC(=O)c2cc(C(C)C)c(C(C)C)o2)cn1 | 186 to 188
Cc1c(CC(=O)OCCO[N+](=O)[O-])cc(-c2ccc(S(C)(=O)=O)cc2)n1-c1ccc(F)cc1 | 110 to 112
CCCC(=O)c1cnc2c(OCCO)cccc2c1Nc1ccccc1C | 125 to 127
O=[N+]([O-])c1cc(Cl)ccc1N1CCc2cc(Cl)ccc21 | 130 to 133
Cc1cc(N)n(C)c2nc(N)nc(=O)c1-2 | > 300
COc1cc(Nc2nccc(-c3ccc(NC(C)=O)cc3)n2)cc(OC)c1OC | 239

SMILES | melting point [°C]
COc1ccc(C(Cc2ccc(OCCc3nc(-c4ccccc4)oc3C)cc2)C(=O)O)cc1 (stereo not given) | 115 to 117
CCOc1c(C=NOC)c(=O)n(C)c(=O)n1C | 108 to 109
C=Cc1ccc(C(=O)OC(C)(C)C)c(C#N)c1 | 51 to 53
CCOC(=O)c1sc(C)nc1S | 62 to 66
CC(=O)Nc1cc(C(C)(C)C)[nH]n1 | 194 to 195
CNc1ccc(-c2cnc3[nH]c(=O)n(CC4CCOCC4)c3n2)cn1 | > 260
O=c1[nH]c(=S)[nH]c2ccnn12 | 295
CCOC(=O)c1ccc(-n2cnnc2)cc1 | 209 to 211
O=[N+]([O-])CS(=O)c1cccc2c1oc1ccccc12 (stereo not given) | 174 to 176
CCc1nn(C2CCCC2)c2cc(C(=O)NCCC(=O)NO)ccc12 | 166 to 169
CCOC(=O)c1cc2ccc(Cl)c(NS(=O)(=O)c3cccs3)c2[nH]1 | 191 to 192
CCC(=O)Nc1cccc(-c2ccc3nnc(C)n3n2)c1 | 265 to 268
COc1ccc(-c2oc(CCCCCc3nnn[nH]3)nc2-c2ccc(Cl)cc2)cc1 | 160
CCCCCCCCCCOc1cc(OCCCOc2ccc(OCc3ccccc3)cc2)cc(C(=O)OC)c1 | 68 to 70
CCc1cccc(NCCCc2cn(C(c3ccccc3)(c3ccccc3)c3ccccc3)cn2)c1 | 189 to 191
COc1ccc(C2OC(=O)NC2C)cc1OC (stereo not given) | 98 to 99
Cc1cc(N)cc(C)c1S(=O)(=O)C[N+](=O)[O-] | 132 to 133
CCC1(C)OC1(C#N)C(=O)O (stereo not given) | 139 to 140
COC(=O)c1cc2sccc2nc1C(=O)OC | 121 to 124
COC1(c2ccc(Sc3ccc(C(=O)c4ccc(C(F)(F)F)cc4)cc3)s2)CCOCC1 | 86 to 87
CCOC(=O)C1=Cc2cc(S(=O)(=O)Cl)ccc2OC1C(F)(F)F (stereo not given) | 97.2 to 98.4
Nc1nc2c(s1)CCc1nc3ccccn3c1-2 | 249
O=C(OCc1ccc(OCCc2ccc(Cl)cc2)cc1)c1cccnc1 | 77 to 78
CCn1c2ccc(C(=O)CC(C)=O)cc2c2cc(C(=O)c3ccccc3C)ccc21 | 148
O=C(Cc1ccc(C(=O)O)cc1)Nc1cccc(/C=C/c2nc(C3CCC3)cs2)c1 | 262 to 263

SMILES | melting point [°C]
CCN(CC)c1ccc(NC(=O)N(C[C@@H]2CCC[C@H](CN(C(=O)Nc3ccc(N(CC)CC)cc3)C3CCCCC3)C2)C2CCCCC2)cc1 | 170 to 172
FC(F)(F)c1cc(-c2ccc(Cl)c(Cl)c2)nc2c(-c3ccccn3)cnn12 | 188
OC1CCC(c2ccc(OCCCCCCCCCCCBr)cc2)CC1 (stereo not given) | 100 to 101
COC(=O)c1[nH]c(C)c(C)c1OCCCCCl | 74 to 76
COc1ccc(-c2ccc(NC(=O)OC(C)(C)C)cc2)cc1 | 142 to 147
CSc1cn(C)cc(-c2cccc(C(F)(F)F)c2)c1=O | 121 to 122
C=CC(C)(O)C=CC1=C(C)C(=O)C(OC(C)(C)OC)CC1(C)C (stereo not given) | 47.5 to 49
O=[N+]([O-])c1ccc2c(c1)COCC2 | 96 to 98
Cc1nc(-c2ccc(C(F)(F)F)cc2)sc1CSc1ccc(OCC(=O)O)cc1 | 190
Cc1c(C)c2c(c(C)c1O)CCC(C)(C1N[C@H](C(=O)O)CS1)O2 (stereo not given in full) | 184 to 186
Cc1nc2n(C)nc(C)n2c(=O)c1CCCl | 140
CCSc1nc2c(cc1F)c(=O)c(C(=O)O)cn2CC | 219 to 221
Cc1cccc(NC(=O)CN2CCN(c3ccccc3)CC2)c1 | 120 to 121
CC(C)(C)c1ccc(C(=O)Nc2cn3cc(-n4ccnc4)ccc3n2)cc1 | 289 to 291
CC1=C(C(=O)c2ccccc2F)C(=O)C2C=CC=CC2C1=O (stereo not given) | 157 to 158
COCCNS(=O)(=O)c1ccc(C(CC2CCCC2)C(=O)Nc2nc3ccc(OC)nc3s2)cc1 (stereo not given) | 209 to 211
COc1cc(-c2nc(-n3ccnc3)c3c(C)c(C#N)sc3n2)cc(OC)c1OC | 238 to 240
CC(=O)NC1CCC(NC(=O)C2CC3c4cccc5c4c(cn5C(C)C)CC3N(C)C2)CC1 (stereo not given) | > 280
OCC1OC(n2cnc3c(NCCCCC(c4ccccc4)c4ccccc4)ncnc32)C(O)C1O (stereo not given) | 78 to 82
C=CCOc1cc(Cl)ccc1C(=O)OC | 47 to 55
COC(=O)c1ccc(Cn2nc(-c3ccc(OC)cc3)c(-c3ccc(OC)cc3)cc2=O)cc1 | 186 to 187
O=C(O)c1ccccc1C(=O)Nc1cccc(-c2ccnc3c(C(=O)c4cccs4)cnn23)c1 | 215 to 216
COc1ccc(Nc2nccc(-c3cccs3)n2)cc1 | 158 to 160
CCc1cn(C2CC(O)C(CNC(=O)c3ccccc3)O2)c(=O)[nH]c1=O (stereo not given) | 246 to 247
COC(=O)c1ccc(-c2ccc3cc(OCc4ccc(F)cc4)c(C45CC6CC(CC(C6)C4)C5)cc3c2)cc1O | 189 to 191

SMILES | melting point [°C]
COC(=O)Cn1c(C(=O)NC(N)=S)cc2cc(C)cc(C)c21 | 226 to 231
CCCCCCCCCCCCCCOc1ccc(C(=O)O)cc1C(C)(C)C | 121 to 123
CCc1ncnc(NC(CC)c2ccc(Oc3c(F)c(F)c(C(F)(F)F)c(F)c3F)cc2)c1Cl (stereo not given) | 58 to 61
CCOC(=O)C(CCC#N)(C(=O)OCC)c1ncc([N+](=O)[O-])cc1C | 64 to 65.5
O=c1ccc(S(=O)(=O)n2nc(Cl)c3ccccc32)n[nH]1 | 238 to 239
CC(=O)CCn1nc(C)c(-c2ccc3c(c2)NC(=O)CO3)c1-c1ccc(F)cc1 | 148 to 151
O=C1NC(=O)C(Cc2ccc(OC[C@@H]3CCCN3c3ccc4ccccc4n3)cc2)S1 (stereo not given in full) | 81 to 83
O=S(=O)(c1ccc(Cl)s1)N(CCO)CCO | 69
C#CCc1c(C)nc2c(NCc3c(C)cccc3NC(=O)OC)cccn12 | 149 to 150
O=C(CC(O)(c1cc(Cl)cc(Cl)c1)C(F)(F)F)c1ccc(-n2ccnc2)cc1 (stereo not given) | 161 to 162
Cc1sc(Nc2cccc(I)n2)nc1-c1cn[nH]c1 | > 260
COCc1ccc(C)c(NC(=O)CC23CC4CC(CC(C4)C2)C3)c1 | 127 to 128
O=C(O)C(=O)Nc1coc2ccc(Cl)cc2c1=O | 213 to 215
O=C1c2ccc(O)cc2OCN1CCO[N+](=O)[O-] | 131 to 133
O=C1CCCc2c1c1cccc3c1n2CCC3 | 160 to 164
COc1nc(NC(=O)NS(=O)(=O)c2ccccc2C(=O)OC(C)C)nc(OC)n1 | 192 to 195
O=C(CC1CCC1)N[C@H]1CC[C@H](CCN2CCC(c3cccc4c3CCO4)CC2)CC1 | 196
CC(C)(C)c1ccccc1N1CCN(C(=O)C2CCC(=O)N2)CC1 (stereo not given) | 290
NC(=O)CC(c1cccc(F)c1)c1cccc(F)c1 | 103 to 105
Cc1nc(NC(=O)c2cccc(S(C)(=O)=O)c2)sc1C(=O)NCc1ccccc1 | 111 to 113
O=c1[nH]c2ccccc2c(=O)n1CCOCCO | 149 to 151
Cc1nc(O)cc2sccc12 | 225 to 227
COC(=O)C(=CNC(C)=O)C(C)=O | 60 to 62
CN1C(=O)CN(c2cccc(C#N)c2)NC1=O | 174 to 178
COc1cc(Nc2c(C#N)cnc3cc(-c4ccc(CN5CCN(C)CC5)cc4)sc23)c(Cl)cc1Cl | 226 to 228
